In patent US7879846B2, “Serine hydrolase inhibitors” (Kyorin Pharmaceutical Co.., Ltd., priority 2006, dated 2011):

Each compound was assayed against T1, Human sputum neutrophil elastase (Homo sapiens, UniProt P08246) (assay: Inhibitor IC50 against human neutrophil elastase (fluorogenic MeOSuc-AAPV-AMC substrate)). Conditions: 20 min preincubation, read-out: HNE IC50.
T1 construct: purchased Elastin Products Co; host or cells: human sputum (natural source)
T1 sequence (P08246 30-247 limits assumed): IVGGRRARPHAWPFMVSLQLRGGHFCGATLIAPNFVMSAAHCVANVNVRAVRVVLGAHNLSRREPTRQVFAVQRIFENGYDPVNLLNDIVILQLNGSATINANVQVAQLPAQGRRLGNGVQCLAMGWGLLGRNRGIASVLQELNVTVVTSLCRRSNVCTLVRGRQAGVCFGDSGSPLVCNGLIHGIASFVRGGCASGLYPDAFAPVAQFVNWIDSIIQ
Assay type: biochemical
Experimental: Determination of Inhibitor IC50 Values Against Human Neutrophil Elastase
Human sputum neutrophil elastase (Elastin Products Co.) was diluted into Assay Buffer A (200 mM Tris pH 7.4, 1 mg/ml BSA) to a working concentration of 0.55 U/ml. […] DMSO alone was used as the negative control. MeOSuc-AAPV-AMC (Bachem) substrate was dissolved in DMSO to 20 mM and further diluted to 1 mM in Assay Buffer A immediately before use. Substrate was added to the elastase assay at a final concentration of 1×10^−4 M. The reaction was allowed to proceed for 20 minutes at room temperature and then quenched with acetic acid at a final concentration of 3% (v/v). […] Fluorescence intensity versus inhibitor concentration was plotted and fit to the Hill equation to quantify IC50 values.
An IC50 of 0.061 to 0.15 µM was found for `COc1cc(C2CCC2)c2c(=O)oc(-c3cccnc3N3CCN(CCN(C)C)CC3)nc2c1` [Compound 186] in this work.
An IC50 greater than 0.15 µM was found for `Cc1cccc2nc(-c3cccnc3-n3cc[n+](C)c3)oc(=O)c12` [Compound 65] in this work.
An IC50 of 0.016 to 0.06 µM was found for `CCc1cc(OC)cc2nc(-c3cccnc3N3CCN(CCOCCO)CC3)oc(=O)c12` [Compound 210] in this work.
An IC50 greater than 0.15 µM was found for `CCN(CC)CC1CN(c2ncccc2-c2nc3cccc(C)c3c(=O)o2)CCO1` (stereo not drawn) [Compound 60] in this work.
An IC50 greater than 0.15 µM was found for `COc1cc(C2CCC2)c2c(=O)oc(-c3cccnc3N3CC[C@@H](N(C)C)C3)nc2c1` [Compound 175] in this work.
An IC50 of less than 0.015 µM was found for `CCc1cc(OC)cc2nc(-c3cccnc3N3CCC(CCN(C)C)CC3)oc(=O)c12` [Compound 248] in this work.
An IC50 of 0.016 to 0.06 µM was found for `CN1CCN(c2ncccc2-c2nc3cccc(C(F)(F)F)c3c(=O)o2)CC1` [Compound 63] in this work.
An IC50 of less than 0.015 µM was found for `CCc1cc(OC)cc2nc(-c3cccnc3N3CCN(CC4CCCO4)CC3)oc(=O)c12` (stereo not drawn) [Compound 218] in this work.
An IC50 of 0.016 to 0.06 µM was found for `C#CCOC(=O)NCCN1CCN(c2ncccc2-c2nc3cc(OC)cc(CC)c3c(=O)o2)CC1` [Compound 227] in this work.
An IC50 of less than 0.015 µM was found for `CCc1cc(OC)cc2nc(-c3cccnc3N(C)CCN(C)C)oc(=O)c12` [Compound 239] in this work.
An IC50 greater than 0.15 µM was found for `O=c1oc(-c2ccccn2)nc2ccccc12` [Compound 17] in this work.
An IC50 of 0.061 to 0.15 µM was found for `CCc1cc(OC)cc2nc(-c3cccnc3N3CCN(c4ccccc4)CC3)oc(=O)c12` [Compound 223] in this work.
An IC50 of less than 0.015 µM was found for `CCc1cccc2nc(-c3cccnc3N3CC[N+](C)(CCOC)CC3)oc(=O)c12` [Compound 96] in this work.
An IC50 greater than 0.15 µM was found for `Cc1cccc2nc(-c3cccnc3OCCOCCOCCOCc3ccccc3)oc(=O)c12` [Compound 56] in this work.
An IC50 of less than 0.015 µM was found for `CCc1cc(OC)cc2nc(-c3cccnc3N3CC[C@H](N4CCS(=O)(=O)CC4)C3)oc(=O)c12` [Compound 264] in this work.
An IC50 of 0.016 to 0.06 µM was found for `CCOC(=O)CCN1CCN(c2ncccc2-c2nc3cc(OC)cc(CC)c3c(=O)o2)CC1` [Compound 221] in this work.
An IC50 of 0.016 to 0.06 µM was found for `CCc1cc(OC)cc2nc(-c3cccnc3N3CCC(C)(C(=O)N4CCN(C)CC4)CC3)oc(=O)c12` [Compound 273] in this work.
An IC50 of 0.061 to 0.15 µM was found for `Cc1cccc2nc(-c3cccnc3OCCOCCOCCOCCOc3ncccc3C(=O)O)oc(=O)c12` [Compound 58] in this work.
An IC50 of 0.016 to 0.06 µM was found for `O=c1oc(-c2cccnc2SCCS(=O)(=O)c2ccccc2)nc2cccc(Cl)c12` [Compound 30] in this work.
An IC50 of 0.016 to 0.06 µM was found for `Cc1cccc2nc(-c3cccnc3N3CCN(CCN(C)C)CC3)oc(=O)c12` [Compound 180] in this work.
An IC50 of less than 0.015 µM was found for `CCc1cc(OC)cc2nc(-c3cccnc3N(C)CC3CCN(C)CC3)oc(=O)c12` [Compound 242] in this work.
An IC50 of less than 0.015 µM was found for `CCc1cc(OC)cc2nc(-c3cccnc3N3CC[N+](C)(CC4OCCO4)CC3)oc(=O)c12` [Compound 231] in this work.
An IC50 of less than 0.015 µM was found for `CCc1cc(OC)cc2nc(-c3cccnc3N3CC[C@@H](N(CCO)CCO)C3)oc(=O)c12` [Compound 268] in this work.
An IC50 of less than 0.015 µM was found for `CCOC(=O)CN1CCN(c2ncccc2-c2nc3cc(OC)cc(CC)c3c(=O)o2)CC1` [Compound 196] in this work.
An IC50 of less than 0.015 µM was found for `CCc1cc(OC)cc2nc(-c3cccnc3N3CC[C@@H](N4CCS(=O)(=O)CC4)C3)oc(=O)c12` [Compound 269] in this work.
An IC50 greater than 0.15 µM was found for `CCc1cc(N(C)C)cc2nc(-c3cccnc3N(C)C3CCN(C)C3)oc(=O)c12` (stereo not drawn) [Compound 144] in this work.
An IC50 of less than 0.015 µM was found for `CCc1cc(OC)cc2nc(-c3cccnc3N3CCN(c4cccnc4)CC3)oc(=O)c12` [Compound 240] in this work.
An IC50 of less than 0.015 µM was found for `CCc1cc(OC)cc2nc(-c3cccnc3N3CC[N+](C)(C)CC3)oc(=O)c12` [Compound 229] in this work.
An IC50 of 0.061 to 0.15 µM was found for `COc1cc(C2CC2)c2c(=O)oc(-c3cccnc3N3CCN(CCN(C)C)CC3)nc2c1` [Compound 170] in this work.
An IC50 of 0.061 to 0.15 µM was found for `COCCN1CCN(c2ncccc2-c2nc3cc(OC)cc(C4CC4)c3c(=O)o2)CC1` [Compound 167] in this work.
An IC50 greater than 0.15 µM was found for `Cc1cccc2nc(-c3ncccc3-n3ccnc3)oc(=O)c12` [Compound 68] in this work.
An IC50 of 0.016 to 0.06 µM was found for `CCc1cc(OC)cc2nc(-c3cccnc3N(C)C3CCN(C)C3)oc(=O)c12` (stereo not drawn) [Compound 138] in this work.
An IC50 of less than 0.015 µM was found for `CCc1cc(OC)cc2nc(-c3cccnc3N3CC[C@@H](N4CCOCC4)C3)oc(=O)c12` [Compound 267] in this work.
An IC50 of 0.016 to 0.06 µM was found for `CCc1cccc2nc(-c3cccnc3-n3cc[n+](Cc4ccc(Cl)cc4)c3)oc(=O)c12` [Compound 94] in this work.
An IC50 of 0.061 to 0.15 µM was found for `COc1cc(C(C)C)c2c(=O)oc(-c3cccnc3N3CCN(CCN4CCOCC4)CC3)nc2c1` [Compound 114] in this work.
An IC50 of less than 0.015 µM was found for `CCc1cccc2nc(-c3ncccc3-n3ccnc3)oc(=O)c12` [Compound 97] in this work.
An IC50 of less than 0.015 µM was found for `CCc1cc(OC)cc2nc(-c3cccnc3N3CCN(c4ccccn4)CC3)oc(=O)c12` [Compound 253] in this work.
An IC50 greater than 0.15 µM was found for `O=c1oc(-c2ccccn2)nc2cc(Cl)cc(Cl)c12` [Compound 11] in this work.
An IC50 of 0.061 to 0.15 µM was found for `COc1cc(C(C)C)c2c(=O)oc(-c3cccnc3N3CCN(CCN(C)C)CC3)nc2c1` [Compound 115] in this work.
An IC50 of 0.016 to 0.06 µM was found for `CCc1cc(OC)cc2nc(-c3cccnc3N3CCC(CCCC(=O)O)CC3)oc(=O)c12` [Compound 225] in this work.
An IC50 greater than 0.15 µM was found for `COC(=O)[C@H]1CCCN1c1ncccc1-c1nc2cccc(OC)c2c(=O)o1` [Compound 43] in this work.
An IC50 of 0.061 to 0.15 µM was found for `Cc1cccc2nc(-c3cnccn3)oc(=O)c12` [Compound 5] in this work.
An IC50 of 0.016 to 0.06 µM was found for `CCc1cc(OC)cc2nc(-c3cccnc3N3CCCCC3)oc(=O)c12` [Compound 226] in this work.
An IC50 of less than 0.015 µM was found for `CCc1cc(OC)cc2nc(-c3cccnc3N(CC)CCCN3CCOCC3)oc(=O)c12` [Compound 238] in this work.
An IC50 greater than 0.15 µM was found for `Cc1cccc2nc(-c3cc[n+]([O-])cc3)oc(=O)c12` [Compound 6] in this work.
An IC50 greater than 0.15 µM was found for `COc1cc(C2CCC2)c2c(=O)oc(-c3cccnc3N3CCN(CCN4CCOCC4)CC3)nc2c1` [Compound 187] in this work.
An IC50 greater than 0.15 µM was found for `COc1cccc2nc(-c3ncccc3-n3ccnc3)oc(=O)c12` [Compound 69] in this work.
An IC50 of less than 0.015 µM was found for `CCc1cc(OC)cc2nc(-c3cccnc3N3CCC(N4CCOCC4)CC3)oc(=O)c12` [Compound 251] in this work.
An IC50 of less than 0.015 µM was found for `COc1ccc(-c2nc3cccc(Cl)c3c(=O)o2)c(OC)n1` [Compound 38] in this work.
An IC50 greater than 0.15 µM was found for `O=c1oc(-c2cccs2)nc2ccccc12` [Compound 8] in this work.
An IC50 of 0.016 to 0.06 µM was found for `COC(=O)[C@H]1CCCN1c1ncccc1-c1nc2cccc(C)c2c(=O)o1` [Compound 33] in this work.
An IC50 of 0.061 to 0.15 µM was found for `COc1cc(C(C)C)c2c(=O)oc(-c3cccnc3N3CCN(CC4CC4)CC3)nc2c1` [Compound 112] in this work.
An IC50 of 0.016 to 0.06 µM was found for `Cc1cccc2nc(-c3cccnc3N3CC[C@H](N(C)C)C3)oc(=O)c12` [Compound 177] in this work.
An IC50 of 0.016 to 0.06 µM was found for `CCc1cccc2nc(-c3cccnc3-n3cc[n+](C)c3)oc(=O)c12` [Compound 84] in this work.
An IC50 of 0.016 to 0.06 µM was found for `CCc1cc(OC)cc2nc(-c3cccnc3N3CC4CC3CN4CC)oc(=O)c12` (stereo not drawn) [Compound 254] in this work.
An IC50 of 0.016 to 0.06 µM was found for `Cc1cccc2nc(-c3cccnc3Oc3ccc4c(c3)OCO4)oc(=O)c12` [Compound 37] in this work.
An IC50 of less than 0.015 µM was found for `CCc1cccc2nc(-c3cccnc3N3CC[C@@H](N(C)C)C3)oc(=O)c12` [Compound 100] in this work.
An IC50 of 0.061 to 0.15 µM was found for `COc1cc(C2CC2)c2c(=O)oc(-c3cccnc3N3CC[C@H](N(C)C)C3)nc2c1` [Compound 165] in this work.
An IC50 of 0.061 to 0.15 µM was found for `COc1cc(C2CC2)c2c(=O)oc(-c3cccnc3N3CC[C@@H](N(C)C)C3)nc2c1` [Compound 164] in this work.
An IC50 of less than 0.015 µM was found for `CCc1cc(OC)cc2nc(-c3cccnc3N3CC[C@@H](N4CCNC(=O)C4)C3)oc(=O)c12` [Compound 266] in this work.
